Measured values from article PMC7615363 (2023).

Legend:
[1] = test system: T5R8/359 (RNA, aptamer) GGAUGAGCGACGCUGGAAGGAAGAAAAUGCAGAAAAAAAGAAAAAAAUGUCUGGGUCUGGCGACUGCUC; experiment: isothermal titration calorimetry; conditions: 100 mM NaCl, 5 mM MgCl2, 50 mM HEPES, pH 7.6, 25 °C
[2] = test system: T8R16/409 (RNA, aptamer) GCCUGCAAGUGCGACGAAUGGGAAAUAGCAAAAGAAAACAGAGACACCGACAUGUUAGAGACCACCGACGUG; experiment: isothermal titration calorimetry; conditions: 100 mM NaCl, 5 mM MgCl2, 50 mM HEPES, pH 7.6, 25 °C
[3] = RNA 6 μM, nucleotide 100–200 μM in syringe

Row | Kd ([1]; one-site fit with stoichiometry constrained to 0.5) | binding [2, 3] | binding [1, 3] | Kd ([2]; one-site fit) | SMILES
1 | ~ 7 μM | no | – | – | Nc1ncnc2c1ncn2[C@@H]1O[C@H](COP(=O)(O)OP(=O)(O)OP(=O)(O)O)[C@@H](O)[C@H]1O
2 | – | – | no | ~ 0.5 μM | Nc1nc2c(ncn2[C@@H]2O[C@H](COP(=O)(O)OP(=O)(O)OP(=O)(O)O)[C@@H](O)[C@H]2O)c(=O)[nH]1
